pEC50: −log10 of the molar value. “Also recorded” adds a separate entry of the source. Structures can show the parent of a compound that is named as a salt.
Columns and labels:
[1] = biological target: T1, guinea pig myocardial adenylate cyclase (Cavia porcellus, UniProt P47747); assay: Guinea pig myocardial adenylate cyclase assay; assay type: biochemical; conditions: adenylate cyclase
T1 construct: histamine-stimulated adenylate cyclase with GPP(NH)P
Description: Male, partly albino, guinea pigs (600 g average weight) were killed by a blow to the head. The hearts were excised and immediately immersed in ice cold oxygenated Tyrode's solution. Both ventricles were dissected free and placed in 250 mM sucrose, 5 mM Tris, 1 mM EDTA, pH 7.45. The tissue was minced with a screen, and was then homogenized with 3 consecutive 5 sec bursts of a Polytron (Brinkman Instruments, Inc., Westbury, NY) at a setting of 11. The homogenate was then centrifuged at 1085×g for 20 min. The pellet was resuspended and recentrifuged twice. The final suspension was filtered through four layers of gauze. Adenylate cyclase was assayed by the method of Salomon et al., Anal. Biochem. (1974) 58:541 as modified by Bristow et al., Mol Pharmacol. (1982) 21:671. Enzyme protein (75-250 μg) was added to a reaction mixture that consisted of 0.1 mM Mg ATP, 0.5 mM MgCl2, 10 mM phosphocreatine, 14.5 μg of creatine kinase (1381 U/mg), 100 mM
The final reaction volume before addition of α-^32 P!ATP was 225 μl. Reaction tubes were stored in cryogenic racks (Kryorack, Isolab, Inc. Akron, OH) at 0° C.
The reaction mixture was pre-warmed in a shaking water bath at 30° C. for 5 min after which 25 μl ([…]) of α-^32 P!ATP (250-500 Ci/mM) was added to label the ATP pool. The assay time was 20 min, the time needed for measurable stimulation of adenylate cyclase. The ^32 P reaction was stopped by the addition of 750 μl of 1% sodium dodecysulfate. ^32 P-labelled cyclic AMP was then isolated by the dual Dowex-alumina column method of Salomon et al., supra. α-^32 P!ATP (New England Nuclear Corporation, Boston, MA) that gave reagent blanks of 50 cpm was purified on Dowex columns as described by Salomon et al., supra.

[2] = biological target: T2, natural suppressor cells (Mus musculus, UniProt P97292); assay: Blocking histamine effects in natural suppressor cells (H2 antagonism); assay type: cell-based, mouse (BALB/c); conditions: for Antagonism by cimetidine (H2 antagonist) of cAMP accumulation: cimetidine 10^-5 M, compounds 6-8 at 10^-4 M, 9 at 10^-7 M
T2 construct: cAMP accumulation
Description: This assay was carried out in the same fashion as already described for the derivatives except that ED-90 concentration of the test compound was chosen. Cimetidine was added at the same time in concentrations ranging from 10^-4 to 10^-8 M. Alternatively, 10^-6 M cimetidine was added to 10^-3 -10^-8 M concentration of agonists.

[3] = biological target: T2, natural suppressor cells; assay: Effects of histamine derivatives on cAMP accumulation in natural suppressor (NS) cells; assay type: cell-based, mouse (BALB/c); conditions: for Relative potency: histamine = 1.0; for Activity / potency on NS cells (in words): cAMP accumulation, H2 activity
Description: NS cells were obtained and cultured as follows: four-to six-month old BALB/c mice were anesthetized with pentobarbital and all major lymphoid organs, including all major lymph nodes, the spleen, and the thymus, were irradiated as described by Slavin et al., Science (1976) 193:1252. The skull, lungs, and hind legs were shielded with lead. The mice were given 200 rad per day, 5 times per week, to a total dose of 3400 rad. Irradiation was delivered from a single 250 kV (15A) source (Philips Medical Systems, Inc., Shelton, CT). The mice were killed between 5 and 15 days after completion of the TLI. Spleens were removed aseptically and single cell suspensions were prepared by gently pressing the spleen fragments through a nylon fiber mesh (Tetko, Inc., Elmsford, NY). These spleen cells were fed daily with tissue culture medium containing RPMI 1640, 10% FCS, 2 mM glutamine, 10% CAS and 5×10^-5 M 2-mercaptoethanol and were later cloned by limiting dilutior, The clones were maintained in RPMI 1640 medium with 10% PCS and 10% CAS.
NS cells were centrifuged and resuspended at b 1×10^6 /ml in PBS and incubated at 37° C. for 10 min with 10 mM IBMX at a final concentration at 20 μM. Alternatively the cells were resuspended in 5 mM HEPES and 1 mM MgSO4 and after five minutes were disrupted in a Dounce homogenizer. Broken cells were centrifuged at 20,000 g […] for thirty minutes and supernatant was discarded. The pellet was resuspended in Tris (pH 7.5), 5 mM HEPES and 1 mM MgSO4 and incubated with IBMX.
Cold TCA (100%) was added to a final concentration of 8% and the tubes were stored in ice. Samples were extracted 3 times with 3 volumes of ether. The ether was evaporated at 40° C. in a water bath for approximately 45 min. Acetylation of both experimental samples and cAMP standards were performed by addition of 10 μl of a mixture of triethylamine and acetic anhydride (2:1). […] The radio-immunoassay was performed as reported previously by Khan et al., J. Clin. Invest. (1985) 75:1578.

T1 sequence (P47747 whole entry): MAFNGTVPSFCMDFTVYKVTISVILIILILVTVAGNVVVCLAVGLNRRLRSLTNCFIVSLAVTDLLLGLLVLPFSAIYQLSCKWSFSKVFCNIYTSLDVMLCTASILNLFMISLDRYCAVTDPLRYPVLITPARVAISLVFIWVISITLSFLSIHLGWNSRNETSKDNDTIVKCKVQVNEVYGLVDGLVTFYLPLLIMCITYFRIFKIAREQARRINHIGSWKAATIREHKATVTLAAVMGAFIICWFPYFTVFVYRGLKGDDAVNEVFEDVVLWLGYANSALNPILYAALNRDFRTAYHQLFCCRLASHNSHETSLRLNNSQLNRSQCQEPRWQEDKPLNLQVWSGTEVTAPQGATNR
T2 sequence (P97292 whole entry): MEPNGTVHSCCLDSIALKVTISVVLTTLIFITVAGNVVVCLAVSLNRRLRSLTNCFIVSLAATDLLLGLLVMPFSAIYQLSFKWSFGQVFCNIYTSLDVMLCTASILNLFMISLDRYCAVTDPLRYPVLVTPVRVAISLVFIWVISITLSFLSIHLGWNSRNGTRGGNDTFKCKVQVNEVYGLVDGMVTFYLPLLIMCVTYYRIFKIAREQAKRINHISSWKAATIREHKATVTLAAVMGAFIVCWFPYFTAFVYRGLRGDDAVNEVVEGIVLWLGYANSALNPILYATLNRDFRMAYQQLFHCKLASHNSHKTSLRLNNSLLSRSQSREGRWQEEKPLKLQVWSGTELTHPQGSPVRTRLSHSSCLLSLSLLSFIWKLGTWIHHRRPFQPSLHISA

Relative potency ([3]; NS cells)	Activity / potency on NS cells (in words) [3]	Compound	Antagonism by cimetidine (H2 antagonist) of cAMP accumulation [2]	Activity on guinea pig myocardium (in words) [1]	Potency relative to histamine (in words) ([3]; NS cells)	also measured
0.4 × 10^1	very active on NS cells	Cc1ccc(NC(=O)CCCC(=O)NCCc2c[nH]cn2)cc1 [Compound 4, 5-2'-(4"-Imidazo)ethylamido!glutaryl p-Toluidine]	not inhibited by the H2 antagonist	inactive on the guinea pig myocardium; also recorded: little or no effect on the myocardium	four times more potent than histamine; also recorded: equipotent to histamine on the lymphocyte accumulation of cyclic AMP	
0.2 × 10^1	widely divergent activity	Cc1ccc(NC(=O)CCCCCC(C)NCCc2c[nH]cn2)cc1 (stereo not drawn) [Compound 8]		very weak effects		Activity on guinea pig myocardium (in words) ([1]; listed as compound 8): same rank order of potency found in the NS cells
0.3 × 10^1	widely divergent activity	Cc1ccc(NC(=O)CCCCC(C)NCCc2c[nH]cn2)cc1 (stereo not drawn) [Compound 7, 6-2'-(4"-Imidazolyl)ethylamino!heptanoic Acid p-Toluide]		same rank order of potency found in the NS cells	three times as potent as histamine	
0.2 × 10^1		Cc1ccc(NC(=O)CCCCNCCc2c[nH]cn2)cc1 [Compound 5, 5-2'-(4"-Imidazo)ethylamino!pentanoic Acid p-Toluide, Dihydrochloride]				Activity on guinea pig myocardium (in words) ([1]; Dihydrochloride): significantly different in their activity
3.8 × 10^3	very potent in NS cell cAMP assays	Cc1ccc(NC(=O)CCCC(C)NCCc2c[nH]cn2)cc1 (stereo not drawn) [Compound 6]	could not be completely inhibited by the H2 antagonist	strikingly impotent in guinea pig myocardium; also recorded: less potent than histamine on the myocardium; also recorded: very weak effects; also recorded: significantly different in their activity	three orders of magnitude more potent than histamine	Activity on guinea pig myocardium (in words) ([1]; listed as compound 6): same rank order of potency found in the NS cells; Potency or activity relative to histamine ([3]; NS cells): 3000 fold; Activity / potency on NS cells (in words) ([3]; listed as compound 6): widely divergent activity; also recorded: retained H2 activity

Compound	Relative potency ([3]; NS cells)	Activity / potency on NS cells (in words) [3]	Antagonism by cimetidine (H2 antagonist) of cAMP accumulation [2]	Activity on guinea pig myocardium (in words) [1]	Potency relative to histamine (in words) ([3]; NS cells)	also measured
CCCCCCNCCc1c[nH]cn1 [Compound 1, 1-2'-(4"-Imidazo)ethylamino!hexane, Dihydrochloride]	0.5 × 10^1		not inhibited by the H2 antagonist			Activity on guinea pig myocardium (in words) ([1]; Dihydrochloride): completely inactive; also recorded: little or no effect on the myocardium; Potency relative to histamine (in words) ([3]; NS cells, Dihydrochloride): about equipotent to histamine; also recorded: equipotent to histamine on the lymphocyte accumulation of cyclic AMP
CN(C)CCCSC(=N)N [Dimaprit, reference compound]		had H2 effects on the NS cells				Shift of dose response curve by cimetidine ([2]; 10^-3 M to 10^-8 M agonist, 10^-6 M cimetidine): parallel shifts to the right; pEC50 ([3]; NS cells): 4.22; Maximal efficacy on cAMP concentrations (in words) ([3]; NS cells, compared with histamine): did not produce the same maximal effects as histamine on cAMP concentrations
CNC(=O)CNC(=O)[C@H](Cc1ccc(NC(=O)CCCCC(C)NCCc2c[nH]cn2)cc1)NC(=O)OC(C)(C)C (stereo partly drawn) [Compound 12]	Inactive	impotent as H2 receptor agonists on NS cells		stimulated guinea pig myocardium		Blockade of histamine mediated accumulation of cAMP ([2]; NS cells): failed to block histamine mediated accumulation of cAMP; Activity / potency on NS cells (in words) ([3]; listed as compound 12): Neither an aliphatic amide derivative of histamine (compound 3) nor the dipeptide conjugate of histamine (compound 12) altered intracellular cAMP; also recorded: inactive on NS cells
